Reference: US20220387357A1, “Method of Dosing a Pain Therapeutic” (priority 2021, published 2022)
Read-outs that look alike come from different tables or passages of the source.

Key:
[1] = Acute pain tail-flick assay, side-by-side mice studies; type: in vivo; conditions: side-by-side comparison, similar to opioids
CB1 receptors = CB1 receptors (Homo sapiens, UniProt P21554); conditions: mediated through CB1 receptors; cited from earlier work
[2] = type: in vivo, human
Text: Tachycardia was the most common adverse event (AE) in this study, reported in 5 of 48 subjects (10%) following active treatment and in no subjects following placebo; all of the treatment-emergent AEs (TEAEs) of tachycardia were deemed related to study treatment.
The Toxicity Grading Scale for Healthy Adult and Adolescent Volunteers Enrolled in Preventative Vaccine Clinical Trials criteria for tachycardia are defined as follows: […]
Severe (Grade 3): >130 bpm
In this study, tachycardia was dose limiting at a level >130 bpm.

[3] = Nonclinical studies of analgesia compared with morphine; type: in vivo
[4] = Preclinical animal models of pain; type: in vivo; conditions: acute pain, visceral pain, fibromyalgia, diabetic peripheral neuropathy, sciatica, chemotherapy induced pain, osteoarthritis models
Text: (§1) Nevertheless, CMX-020 may produce adverse side effects when given at improper dosages. Methods of administrating an effective amount of the compound CMX-020 to produce an analgesia effective, while still being within a safe and tolerable dose, is both necessary and desirable.

[5] = type: in vivo, humans
Text: as §1

[6] = Subject 0048, 0.24 mg/kg 15-minute infusion
[7] = Subject 0057, 0.32 mg/kg 30-minute infusion
[8] = following active treatment, all dose levels

Sequence of CB1 receptors (P21554 whole entry): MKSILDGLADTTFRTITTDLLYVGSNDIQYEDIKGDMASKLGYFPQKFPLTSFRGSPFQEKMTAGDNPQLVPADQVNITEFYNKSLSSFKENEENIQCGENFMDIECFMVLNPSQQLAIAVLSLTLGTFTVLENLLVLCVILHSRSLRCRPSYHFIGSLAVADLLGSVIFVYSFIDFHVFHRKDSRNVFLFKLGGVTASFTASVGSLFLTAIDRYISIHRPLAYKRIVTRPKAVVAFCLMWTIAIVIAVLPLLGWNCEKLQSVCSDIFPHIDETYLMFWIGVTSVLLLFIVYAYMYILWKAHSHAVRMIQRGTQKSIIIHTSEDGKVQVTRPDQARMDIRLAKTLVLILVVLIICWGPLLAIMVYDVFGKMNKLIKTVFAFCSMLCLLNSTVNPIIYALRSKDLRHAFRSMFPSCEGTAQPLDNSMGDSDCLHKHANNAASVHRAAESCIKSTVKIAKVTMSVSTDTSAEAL

CCCCC/C=C\C/C=C\C/C=C\C/C=C\CCCC(=O)Nc1ccc(O)cc1 [AM404, reference compound]
Analgesic efficacy in the acute pain tail-flick assay [1]: highest level of analgesic efficacy | Anticonvulsant action (CB1 receptors): anticonvulsant action mediated through CB1 receptors

CCCCCC(=O)N(CCC=C=CCCCC=C=CCC=C=CCCCC(=O)NC1CC1)C(C)C [CMX-020]
Number of elevated heart rate assessed as clinically significant ([2]; 0.32 mg/kg and 0.24 mg/kg 15-minute infusion groups compared with the other dose levels and placebo): higher number | Doses at which tachycardia was reported ([2]; 0.32 mg/kg and 0.24 mg/kg 15 minutes infusion and 0.32 mg/kg 30 minute infusion): only at the three highest doses | Time of peak heart rate following the start of treatment administration ([2]; Subject 0033, 0.32 mg/kg 15-minute infusion): 16 min | Heart rate after decrease ([2]; Subject 0033, 0.32 mg/kg 15-minute infusion, 15 minutes following the peak heart rate): 113 bpm | Peak Pulse ([2]; Subject 0033, Cohort 5, 0.32 mg/kg 15-minute infusion): 138 bpm | Time of peak heart rate following the start of dose administration ([2]; Subject 0036, 0.32 mg/kg 15-minute infusion): 16 min | Heart rate after decrease ([2]; Subject 0036, 0.32 mg/kg 15-minute infusion, 15 minutes following the start of treatment administration (so in the source)): 101 bpm | Peak Pulse ([2]; Subject 0036, Cohort 5, 0.32 mg/kg 15-minute infusion): 110 bpm | Time of elevated heart rate following the start of dose administration ([2]; Subject 0045, 0.24 mg/kg 15-minute infusion): 11 min | Heart rate after decrease ([2]; Subject 0045, 0.24 mg/kg 15-minute infusion, 10 minutes following the start of treatment administration (so in the source)): 109 bpm | Peak Pulse ([2]; Subject 0045, Cohort 6, 0.24 mg/kg 15-minute infusion (discontinued, total dose received 0.156 mg/kg)): 156 bpm | Time of TEAE of tachycardia following start of treatment administration [2, 6]: 11 min | Time of peak heart rate following start of treatment administration [2, 6]: 16 min | Heart rate after decrease ([2]; Subject 0048, 0.24 mg/kg 15-minute infusion, 15 minutes following the peak heart rate): 103 bpm | Peak Pulse ([2]; Subject 0048, Cohort 6, 0.24 mg/kg 15-minute infusion): 109 bpm | Time of TEAE of tachycardia following start of treatment administration [2, 7]: 16 min | Time of peak heart rate following start of treatment administration [2, 7]: 20 min | Heart rate after decrease ([2]; Subject 0057, 0.32 mg/kg 30-minute infusion, 20 minutes following the peak heart rate): 97 bpm | Peak Pulse ([2]; Subject 0057, Cohort 8, 0.32 mg/kg 30-minute infusion): 110 bpm | Time of peak in elevated heart rate following the start of treatment administration ([2]; cohorts 5 and 6, 15-minute infusions): 11 to 16 min | Time of peak in elevated heart rate ([2]; cohorts 7 and 8, 30-minute infusions): approximately 30 minutes | Incidence of tachycardia (adverse event) [2, 8]: 10% | Subjects reporting tachycardia (adverse event) [2, 8]: 5 of 48 | Analgesic efficacy in the acute pain tail-flick assay [1]: highest level of analgesic efficacy | Analgesia compared with morphine [3]: analgesia equivalent to that achieved by morphine | Pain response in animal models of pain [4]: effectively reduce the pain response | Efficacy in proof-of-concept trial in sciatic pain ([5]; humans, sciatic pain): indicated efficacy | Safety when administered to humans ([5]; intravenous and oral formulations, several dose levels): demonstrated the safety
